In ChEMBL document CHEMBL1201862, “PubChem BioAssay data set” (2004):
Calls of active or inactive are those of the source.

Assays:
[1] = tested on: H4; assay: Luminescence Cell-Based Dose Response HTS to Identify Activators of 5'UTR Stem-Loop Driven Prion Protein mRNA Translation in H4 Neuroglioblastoma Cells. [Related pubchem assays: 1829 (Project Summary), 1814 (Primary HTS)]; assay type: functional; conditions: Homo sapiens
[2] = Luminescence Cell-Based Dose Response HTS to Identify Activators of Luciferase Translation or Activity in H4 […] Cells. [Related pubchem assays: 1829 (Project Summary), 1814 (Primary HTS)]; assay type: functional
[3] = Luminescence Cell-Based Dose Confirmation HTS to Identify Activators of 5'UTR Stem-Loop Driven Alpha-Synuclein mRNA Translation in H4 Neuroglioblastoma Cells. [Related pubchem assays: 1829 (Project Summary), 1814 (Primary HTS)]; assay type: functional
[4] = HEp-2 cell cytotoxicity, dose response, cytotoxicity control for RSV inhibitor project, HTS (AID 2410); assay type: functional; conditions: human respiratory syncytial virus
[5] = molecular target: Cytochrome P450 2C19 (Homo sapiens, UniProt P33261); assay: Cytochrome panel assay with activity outcomes. Panel member name: p450-cyp2c19 Compounds with AC50 equal or less than 10 uM are considered active; assay type: functional
[6] = molecular target: T1, Cytochrome P450 1A2 (Homo sapiens, UniProt P05177);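 also: PubChem cytochrome P450 panel assay, CYP1A2 panel member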
T1 sequence (P05177 whole entry): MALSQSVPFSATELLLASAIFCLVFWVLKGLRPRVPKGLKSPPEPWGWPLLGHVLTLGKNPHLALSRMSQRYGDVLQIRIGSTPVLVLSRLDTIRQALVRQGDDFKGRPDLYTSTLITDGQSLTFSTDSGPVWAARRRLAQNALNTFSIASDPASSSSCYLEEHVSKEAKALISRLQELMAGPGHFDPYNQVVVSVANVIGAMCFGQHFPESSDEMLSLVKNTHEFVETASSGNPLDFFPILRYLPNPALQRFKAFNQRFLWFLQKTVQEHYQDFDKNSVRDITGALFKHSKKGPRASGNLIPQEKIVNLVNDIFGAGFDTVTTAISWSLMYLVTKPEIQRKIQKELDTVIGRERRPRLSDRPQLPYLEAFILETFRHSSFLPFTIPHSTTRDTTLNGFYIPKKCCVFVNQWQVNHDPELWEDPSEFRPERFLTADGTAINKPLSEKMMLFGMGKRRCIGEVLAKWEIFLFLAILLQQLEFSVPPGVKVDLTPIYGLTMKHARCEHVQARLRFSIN

[7] = molecular target: T2, Corticotropin-releasing factor receptor 2/Corticotropin-releasing factor-binding protein (Homo sapiens, UniProt P24387+Q13324); assay: activators of CRF receptor 2 with binding protein – uHTS hits, confirmation (AID 602473); assay type: functional; conditions: read-out: EC50_Mean
T2 sequence (Q13324 whole entry): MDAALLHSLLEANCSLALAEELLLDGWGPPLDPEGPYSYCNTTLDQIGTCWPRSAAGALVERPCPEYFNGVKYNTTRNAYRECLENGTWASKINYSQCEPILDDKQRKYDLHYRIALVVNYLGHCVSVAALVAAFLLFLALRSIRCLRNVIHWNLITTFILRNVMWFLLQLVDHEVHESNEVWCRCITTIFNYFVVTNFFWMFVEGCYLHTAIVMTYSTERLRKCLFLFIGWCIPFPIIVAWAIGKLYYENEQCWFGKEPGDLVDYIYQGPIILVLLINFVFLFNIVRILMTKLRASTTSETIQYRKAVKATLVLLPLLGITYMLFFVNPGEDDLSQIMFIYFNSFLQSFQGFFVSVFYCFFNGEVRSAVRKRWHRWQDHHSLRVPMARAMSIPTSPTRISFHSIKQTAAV
T2 sequence (P24387 whole entry): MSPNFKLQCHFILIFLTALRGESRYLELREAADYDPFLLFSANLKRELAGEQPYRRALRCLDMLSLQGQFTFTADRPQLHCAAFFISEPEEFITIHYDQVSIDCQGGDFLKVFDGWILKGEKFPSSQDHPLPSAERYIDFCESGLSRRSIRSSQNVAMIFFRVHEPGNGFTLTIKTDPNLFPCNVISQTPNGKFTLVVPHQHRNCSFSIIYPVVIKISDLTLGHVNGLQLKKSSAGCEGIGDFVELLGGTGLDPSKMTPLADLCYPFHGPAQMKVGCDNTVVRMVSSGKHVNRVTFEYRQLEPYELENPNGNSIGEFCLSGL

[8] = molecular target: T2, Corticotropin-releasing factor receptor 2/Corticotropin-releasing factor-binding protein; assay: Dose Response confirmation of uHTS hits for small molecule antagonists of the CRF-binding protein and CRF-R2 receptor complex.; assay type: functional; conditions: read-out: IC50_Mean
[9] = molecular target: T3, Fatty acid synthase (Homo sapiens, UniProt P49327); assay: FAS thioesterase domain inhibitors, dose response, biochemical, endpoint fluorescence intensity, uHTS hits (AID 624327); assay type: functional;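 also: fluorescence from hydrolysis of an O-methyl fluorescein acyl ester substrate by the enzyme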
[10] = molecular target: T3, Fatty acid synthase; assay: FAS thioesterase domain inhibitors, dose response, biochemical, kinetic fluorescence intensity (AID 624326); assay type: functional;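 also: rate of fluorescence rise from hydrolysis of a fluorogenic O-methyl fluorescein ester substrate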
[11] = molecular target: T4, Heat shock factor protein 1 (Mus musculus, UniProt P38532); assay: inhibition of MG132-induced HSE-luciferase signal, confirmation, cell-based, NIH3T3, luminescence, dose retest (AID 2382); assay type: functional;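 also: NIH3T3 fibroblasts with HSF1-driven luciferase reporter stressed by proteasome inhibitor MG132; luminescence from HSF1-driven luciferase expression after 8 hours of MG132 stress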
T4 sequence (P38532 whole entry): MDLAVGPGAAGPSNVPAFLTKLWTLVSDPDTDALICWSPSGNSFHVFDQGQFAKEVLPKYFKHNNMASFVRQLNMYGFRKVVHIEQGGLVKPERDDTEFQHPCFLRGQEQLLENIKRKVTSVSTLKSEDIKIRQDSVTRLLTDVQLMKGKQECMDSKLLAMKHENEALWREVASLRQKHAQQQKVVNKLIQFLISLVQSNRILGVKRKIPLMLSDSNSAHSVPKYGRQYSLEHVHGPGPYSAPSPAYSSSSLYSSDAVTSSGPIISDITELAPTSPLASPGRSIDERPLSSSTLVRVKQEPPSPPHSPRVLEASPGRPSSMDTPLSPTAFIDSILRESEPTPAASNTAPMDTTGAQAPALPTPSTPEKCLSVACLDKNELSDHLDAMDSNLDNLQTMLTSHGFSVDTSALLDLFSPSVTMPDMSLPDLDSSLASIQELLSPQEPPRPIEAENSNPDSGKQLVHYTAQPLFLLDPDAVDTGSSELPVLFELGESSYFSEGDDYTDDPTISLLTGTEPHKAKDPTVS

T3 sequence (P49327 whole entry, the tested form may be a part): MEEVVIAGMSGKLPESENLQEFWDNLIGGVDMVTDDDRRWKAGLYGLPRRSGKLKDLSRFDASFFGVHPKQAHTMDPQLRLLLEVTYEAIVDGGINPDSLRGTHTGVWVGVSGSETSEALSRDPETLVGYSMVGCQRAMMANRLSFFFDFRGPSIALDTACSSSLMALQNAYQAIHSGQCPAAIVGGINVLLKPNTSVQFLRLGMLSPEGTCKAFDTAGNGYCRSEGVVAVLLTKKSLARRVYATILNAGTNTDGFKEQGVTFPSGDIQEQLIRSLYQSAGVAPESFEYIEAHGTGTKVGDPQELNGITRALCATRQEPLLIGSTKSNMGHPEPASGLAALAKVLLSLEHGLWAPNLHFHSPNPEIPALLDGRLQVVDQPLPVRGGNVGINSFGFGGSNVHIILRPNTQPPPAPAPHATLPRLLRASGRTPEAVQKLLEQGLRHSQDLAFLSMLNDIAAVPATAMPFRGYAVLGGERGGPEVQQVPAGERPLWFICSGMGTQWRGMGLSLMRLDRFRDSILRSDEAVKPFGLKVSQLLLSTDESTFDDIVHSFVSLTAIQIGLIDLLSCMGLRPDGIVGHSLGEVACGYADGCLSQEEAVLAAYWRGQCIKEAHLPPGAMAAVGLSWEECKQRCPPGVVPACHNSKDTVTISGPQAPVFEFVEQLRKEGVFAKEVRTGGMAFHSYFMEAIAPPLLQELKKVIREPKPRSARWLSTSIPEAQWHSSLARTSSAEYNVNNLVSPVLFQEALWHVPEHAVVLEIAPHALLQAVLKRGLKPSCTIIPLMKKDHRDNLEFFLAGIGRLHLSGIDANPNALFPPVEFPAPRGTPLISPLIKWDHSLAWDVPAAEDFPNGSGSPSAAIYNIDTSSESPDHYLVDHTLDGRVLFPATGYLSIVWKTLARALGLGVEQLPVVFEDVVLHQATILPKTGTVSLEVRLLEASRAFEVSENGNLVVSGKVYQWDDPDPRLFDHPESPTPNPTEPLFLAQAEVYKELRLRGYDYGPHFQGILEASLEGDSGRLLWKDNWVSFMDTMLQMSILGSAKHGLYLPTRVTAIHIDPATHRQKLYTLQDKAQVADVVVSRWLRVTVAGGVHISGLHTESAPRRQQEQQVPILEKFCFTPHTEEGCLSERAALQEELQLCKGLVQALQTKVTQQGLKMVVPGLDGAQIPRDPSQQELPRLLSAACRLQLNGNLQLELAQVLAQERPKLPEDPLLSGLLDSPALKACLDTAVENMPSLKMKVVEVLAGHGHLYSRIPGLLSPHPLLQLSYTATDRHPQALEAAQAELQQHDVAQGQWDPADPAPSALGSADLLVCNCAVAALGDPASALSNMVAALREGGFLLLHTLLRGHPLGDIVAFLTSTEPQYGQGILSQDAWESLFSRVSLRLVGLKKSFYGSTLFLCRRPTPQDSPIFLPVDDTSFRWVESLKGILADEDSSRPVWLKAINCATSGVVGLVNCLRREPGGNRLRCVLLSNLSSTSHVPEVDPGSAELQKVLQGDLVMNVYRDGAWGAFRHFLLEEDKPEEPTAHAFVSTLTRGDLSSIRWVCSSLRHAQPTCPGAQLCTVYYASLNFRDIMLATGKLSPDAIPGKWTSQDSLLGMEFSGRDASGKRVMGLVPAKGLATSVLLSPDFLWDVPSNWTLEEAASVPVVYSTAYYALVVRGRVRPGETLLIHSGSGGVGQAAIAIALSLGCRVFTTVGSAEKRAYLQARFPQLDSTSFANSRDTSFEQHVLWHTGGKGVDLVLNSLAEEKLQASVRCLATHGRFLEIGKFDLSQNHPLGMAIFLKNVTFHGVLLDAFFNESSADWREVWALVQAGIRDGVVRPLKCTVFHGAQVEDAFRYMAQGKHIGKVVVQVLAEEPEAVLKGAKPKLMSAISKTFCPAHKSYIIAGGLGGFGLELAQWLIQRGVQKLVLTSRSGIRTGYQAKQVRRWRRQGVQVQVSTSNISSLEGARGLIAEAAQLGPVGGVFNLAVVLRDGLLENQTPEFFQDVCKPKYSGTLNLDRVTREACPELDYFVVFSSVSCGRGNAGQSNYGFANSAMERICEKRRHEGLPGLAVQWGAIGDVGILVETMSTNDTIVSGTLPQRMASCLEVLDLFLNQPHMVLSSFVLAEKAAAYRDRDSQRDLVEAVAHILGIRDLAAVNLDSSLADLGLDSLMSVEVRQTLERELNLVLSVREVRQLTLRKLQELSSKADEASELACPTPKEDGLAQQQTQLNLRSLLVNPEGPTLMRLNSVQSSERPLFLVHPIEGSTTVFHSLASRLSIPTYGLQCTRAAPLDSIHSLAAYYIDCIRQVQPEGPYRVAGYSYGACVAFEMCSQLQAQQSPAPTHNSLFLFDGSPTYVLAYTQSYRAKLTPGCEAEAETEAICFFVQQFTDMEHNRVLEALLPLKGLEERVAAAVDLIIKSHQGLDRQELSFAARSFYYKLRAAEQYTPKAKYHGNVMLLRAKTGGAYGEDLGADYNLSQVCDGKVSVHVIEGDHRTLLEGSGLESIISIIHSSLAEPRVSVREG
Sequence of Cytochrome P450 2C19 (P33261 whole entry): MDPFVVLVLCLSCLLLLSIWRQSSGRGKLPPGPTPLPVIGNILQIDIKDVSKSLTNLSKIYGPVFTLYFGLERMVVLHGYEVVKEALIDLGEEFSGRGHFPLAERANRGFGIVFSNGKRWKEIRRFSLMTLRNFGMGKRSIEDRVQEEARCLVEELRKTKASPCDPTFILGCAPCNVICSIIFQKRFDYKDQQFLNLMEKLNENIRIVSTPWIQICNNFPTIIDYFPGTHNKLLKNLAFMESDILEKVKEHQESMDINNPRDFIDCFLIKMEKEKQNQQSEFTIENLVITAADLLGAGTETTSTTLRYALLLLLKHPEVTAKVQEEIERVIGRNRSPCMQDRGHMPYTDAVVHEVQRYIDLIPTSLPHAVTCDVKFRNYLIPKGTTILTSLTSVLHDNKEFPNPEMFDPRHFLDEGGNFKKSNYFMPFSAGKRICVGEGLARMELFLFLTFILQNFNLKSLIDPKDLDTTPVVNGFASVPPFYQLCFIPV

| Compound | EC50 [1] | EC50 [2] | EC50 [3] | also measured |
| --- | --- | --- | --- | --- |
| Cn1sc(NC(=O)c2cccc(Cl)c2)nc1=O | > 120 µM (not active) | 7.11 µM (active) | 12.8 µM (active) | – |
| COc1ccc(-c2c(C#Cc3ccccc3)c3ccccc3n2C)cc1 | 43.1 µM (active) | 22.1 µM (active) | 19.6 µM (active) | CC50 [4]: 44 µM (active) |
| Cc1nc(S(=O)(=O)N2CCOCC2)c(C#N)c(C)c1Cl | > 120 µM (not active) | 55.7 µM (active) | 10.7 µM (active) | AC50 [5]: inconclusive; AC50 [6]: 1 µM (inconclusive) |
| CCCCOc1ccc2c(c1)/C(=C(\C(Cl)=C(Cl)Cl)[N+](=O)[O-])N2 | – | – | – | EC50 [7]: 37.9 µM (active); IC50 [8]: > 47.1 µM (inactive) |
| CCc1ccc(NC(=O)CSc2nc(N)c(NC(=O)c3ccc(F)c(F)c3)c(O)n2)cc1 | – | – | – | EC50 [7]: > 53 µM (inactive); IC50 [8]: > 47.1 µM (inactive) |
| Cc1cc(/C(O)=C(/C([S-])=Nc2ccc(F)cc2)[n+]2ccccc2)c(C)n1-c1ccc(F)cc1 | 21.1 µM (active) | 16.1 µM (active) | > 120 µM (not active) | – |
| CCOc1ccc2[nH]c(SCC3CC3(Cl)Cl)nc2c1 (centres undefined) | 30.2 µM (active) | 29.7 µM (active) | 0.506 µM (active) | – |
| Cn1c(=O)c2cc3ccc(Cl)cc3nc2n(C)c1=O | – | – | – | EC50 [7]: > 53 µM (inactive); IC50 [8]: > 47.1 µM (inactive) |
| O=C(COC(=O)c1cc(F)c(F)cc1Cl)NC1CCCCCC1 | – | – | – | IC50 [9]: 13.1 µM (active); IC50 [10]: 6.86 µM (active) |
| Cc1c([N+](=O)[O-])cc(S(=O)(=O)Nc2ccc(-c3ccc(N4CCCC4)nn3)cc2)cc1[N+](=O)[O-] | – | – | – | CC50 [4]: > 50 µM (active); IC50 [9]: 0.867 µM (active); IC50 [10]: 0.524 µM (active) |
| C[C@]12CCC(=O)C=C1CC[C@@H]1[C@@H]2[C@@H](O)C[C@]2(C=O)[C@@H](C(=O)CO)CC[C@@H]12 [ALDOSTERONE] | > 120 µM (not active) | > 120 µM (not active) | > 120 µM (not active) | – |
| CC(C)(C)c1ccc(COC(=O)CN2C(=O)NC3(CCCC3)C2=O)cc1 | – | – | – | IC50 [9]: 4.84 µM (active); IC50 [10]: 5.17 µM (active) |
| CCCCN(C=O)c1c(CC)nc2c(OCc3ccc(Cl)cc3Cl)cccn12 | – | – | – | IC50 [9]: 6.01 µM (active); IC50 [10]: 8.19 µM (active) |
| CCn1cc(C(=O)NCc2ccco2)c(=O)c2cc(S(=O)(=O)N3CCC(C)CC3)ccc21 | – | – | – | IC50 [9]: 2.6 µM (active); IC50 [10]: 3.21 µM (active) |
| COc1ccc(/C=C/C(=O)NC(=S)Nc2ccc(S(=O)(=O)Nc3cc(OC)ncn3)cc2)cc1 | – | – | – | EC50 [7]: > 53 µM (inactive); IC50 [8]: > 47.1 µM (inactive) |
| [O-][n+]1cc(-c2cc3ccccc3o2)[n+]([O-])c2c1CCCC2 | 2.05 µM (active) | 8.68 µM (active) | > 60 µM (not active) | – |
| O=C(CSc1cn(Cc2ccccc2)c2ccccc12)N1CCOCC1 | 16.8 µM (active) | 19.8 µM (active) | 20.9 µM (active) | – |
| Cc1ccc(C(=O)Nc2ccnc(-c3cccnc3)n2)cc1 | 15.4 µM (active) | 16.1 µM (active) | 13.3 µM (active) | – |
| CCCc1cc(O)nc(SCC(=O)N(CCC#N)c2ccc3c(c2)OCCO3)n1 | – | – | – | EC50 [7]: > 53 µM (inactive); IC50 [8]: > 47.1 µM (inactive) |
| CCOc1ccc(CNC(=O)CCC(=O)N2Cc3cccc(OC)c3Oc3ncccc32)cc1 | – | – | – | EC50 [7]: > 53 µM (inactive); IC50 [8]: > 47.1 µM (inactive) |
| O=C(COC(=O)c1ccccc1-n1cnnn1)c1ccc(F)cc1 | 31.3 µM (active) | 7.61 µM (active) | 4.44 µM (active) | EC50 [11]: 50.2 µM (active) |
| CCNc1ccc(S(=O)(=O)N(C)C)cc1NCC(=O)Nc1ccc(F)c(Cl)c1 | – | – | – | IC50 [9]: 12.4 µM (active); IC50 [10]: 18.2 µM (active) |
